Reference: patent US20060148714A1, “Therapeutic peptide-based constructs” (priority 1999, published 2006)
In brackets after ≈: the same amount, converted by molar mass. Where a SMILES comes first, the peptide text is derived from it. Where no end group is shown, it is not given here. [ ]: non-standard residue; d: D form. The star is where a group is joined. Acetyl(2-naphthyl) = O=C(Cc1ccc2ccccc2c1)*; d1Nal = N[C@H](Cc1cccc2ccccc12)C(=O)O

Legend:
[1] = system: E. coli (J5 and 0111 B4), Staphylococcus aureus and Candida albicans; test: Broth and/or radial diffusion antimicrobial assays; assay type: cell-based
From the text: Assays useful for testing a variety of biological activities of BPI protein products, including BPI-derived peptides, are described in co-owned U.S. Pat. Nos. 5,733,872; 5,763,567; 5,652,332; and 5,856,438 and corresponding PCT Publication Nos. WO 94/20532 (PCT/US94/02465) and WO 95/19372 (PCT/US94/10427) and U.S. Pat. No. 5,858,974 and corresponding PCT Publications Nos. WO 96/08509 (PCT/US95/09262) and WO 97/04008 (PCT/US96/03845), incorporated herein by reference. These activities include antimicrobial (including antibacterial and antifungal), LPS binding, LPS neutralization and additional assays of heparin binding as well as heparin neutralization.

[2] = system: bFGF-induced angiogenesis; test: In vivo Matrigel angiogenesis assay (hemoglobin content of excised gel); conditions: 10 μg peptide construct per gel; hemoglobin of gel excised ten days after s.c. injection; C57BL/6J mice
Protocol: For these experiments, peptide-based constructs according to the invention were assayed for their ability to inhibit heparin-induced angiogenesis in vivo in mice. Basement membrane matrix (Matrigel®, Becton Dickinson Labware, Mountain View, Calif.) was thawed and maintained at 4° C. and angiogenic factors were added to the gel in the liquid state generally as described in Passaniti et al., 1992, Lab. Invest. 67: 519-528. Heparin sodium (Sigma, St. Louis, Mo.) was dissolved in sterile PBS to various concentrations ranging from 1,250-10,000 U/mL, and used in these experiments at 8,000 U/mL. Human recombinant basic fibroblast growth factor (bFGF; Sigma) was reconstituted into 1. % BSA in PBS to 25 μg/mL. A volume of 2.5 μL dissolved heparin solution and 4.0 μL recombinant bFGF were added to 0.5 mL Matrigel® mixture per mouse injection. Peptide-based constructs were added to this Matrigel® mixture at varying concentrations ranging from 0.5 to 50 μg/mL (final concentration) in 10 μL/0.5 mL Matrigel® aliquot per experimental animal. Ten μL sterile PBS was substituted for peptide-based constructs in Matrigel® aliquots injected into control animals.
Female C57BL/6J mice (Jackson Laboratory, Bar Barbor, Me.) at 6-8 weeks of age (maintained under NIH guidelines) were injected subcutaneously down the dorsal midline with 0.5 mL aliquots of Matrigel® prepared as described above. Ten days after injection, the Matrigel® gels were excised and placed in Drabkin's reagent (Sigma). Total protein and hemoglobin content can be determined for the gels stored in Drabkin's reagent after mechanical homogenization of the gels. Hemoglobin concentration was measured using Sigma Procedure #525 and reagents supplied by Sigma (St. Louis, Mo.) to be used with this procedure. If desired, total protein levels are determined using a microplate assay that is commercially embodied in a kit (DC Protein Assay, Bio-Rad, Richmond, Calif.).
Gels to be used for histological staining are formalin-fixed immediately after excision from the animals rather than being placed in Drabkin's reagent. Formalin-fixed gels are embedded in Tissue-Tek O.C.T. compound (Miles, Inc., Elkhart, Ind.) for frozen sectioning. Slides of frozen sections are stained with hematoxylin and eosin (as described by Humason, 1979, Animal Tissue Techniques, 4th Ed. W.H. Feeman & Co., San Francisco, Calif., Ch. 9, pp. 111-131). The effect of peptides are detected by microscopic examination of frozen stained sections for inhibition of angiogenesis relative to Matrigel® gel slices prepared without added peptides. The extent of angiogenesis inhibition is quantitated using the normalized amounts of hemoglobin found in BPI peptide-containing gel slices.
Data are presented as the means of triplicate determinations of hemoglobin concentrations from the excised gel (ISEM) with ten mice per group.

LPS = test: RAW cell assay of LPS neutralization; assay type: cell-based
[3] = system: Factor Xa neutralization by ATIII/heparin complexes; test: Chromostrate heparin anti-Factor Xa assay (heparin neutralization); assay type: biochemical; conditions: absorbance at 405 nm
Protocol: A Chromostrate™ assay was used to determine the effect of peptide-based constructs, including derivatized constructs, and the effect protamine sulfate (as a positive control) on Factor Xa neutralization by ATIII/heparin complexes. The assay was conducted using a Chromostrate™ heparin anti-Factor Xa assay kit (Organon Teknika Corp., Durham, N.C.). Heparin concentration was varied so that a heparin standard curve was generated. The assay measured the potentiating effect of heparin on anti-Xa activity in vitro. Solution containing heparin is incubated in the presence of ATIII with an excess of Factor Xa, forming an ATIII-Heparin-Xa complex. The remaining Xa catalyzes the release of p-nitroaniline (pNA) from the chromogenic substrate. The release of p-nitroaniline is measured at 405 nm. The absorbance obtained in inversely porportional to the concentration of heparin in the sample.
Reagents for the assay are prepared as follows. Heparin, peptide-based constructs and protamine sulfate stocks are made in saline. Stock solutions are approximately 1 mg/mL=1 μg/μL. Factor Xa reagent and substrate reagent are reconstituted with 2.0 mL purified water. Antithrombin III (ATIII) reagent is reconstituted with 1.0 mL purified water. The assay is performed in 96 well microtiter plates. Assay components are added to the microtiter wells as follows: 12.5 μl of heparin (from 0 to 10 U/mL), 25 μl of construct or protamine sulfate, 12.5 μL of ATIII (0.5 PEU/mL), 25 μL of bovine Factor Xa (14 nKat/mL), 25 μL substrate (3 μmoles/mL). The reaction is allowed to proceed for 20 minutes and then 25 μL of 0.1 M acetic acid is added. The color reaction is quantitated on a microplate reader at 405 nm. Constructs that neutralize heparin show an increase in the absorbance at 405 nm. Protamine is used as a positive control and its activity is designated as 100%. The percent (%) heparin neutralization for each peptide construct is calculated relative to the neutralization by protamine (100%), and shown in Table IV.

[4] = system: human umbilical vein endothelial cells (HUVEC); assay type: cell-based
Protocol: Briefly, human umbilical vein endothelial cells (HUVEC) were cultured in EGM-2 medium (Clonetics Corp., San Diego, Calif.), harvested and plated onto a 96-well culture plate. After 24 hours of quiescence, the cells were co-cultured with various peptide-based constricts in the presence of growth factors for 72 hours to test their activity. Cell proliferation was quantitated by tritiated thymidine incorporation into DNA and was expressed in counts per minute (cpm).
Details of the experimental procedures were as follows: HUVEC cells were cultured in EGM-2 media from Clonetics Corp., a subsidiary of BioWhittaker, Inc., San Diego, Calif. [EGM-2 is Endothelial Cell Basal Medium-2 (EMB-2) supplemented with growth factors (hFGF-B, VEGF, IGF-1, hEGF) ascorbic acid, heparin, GA-1000 and 2% FBS), in T75 flasks until confluent (˜4-7 days). Cells were harvested by trypsinizing the cells using 0.025% trypsin/EDTA for 5 minutes. To stop the reaction, 2-5% FBS was added. The cells were centrifuged and washed 3 times using Hank's Balanced Salt Solution (HBSS) or Dulbecco's Phosphate Buffered Saline D-PBS. The pellet was then resuspended in EBM-2 supplemented with 0.1% FBS and GA-1000 was used. The cells were counted and a cell suspension was prepared at 2×10^5/mL in EBM-2 with 0.1% FBS; cells were dispensed into a 96-well flat bottomed culture plate at 0.1 mL/well (total: ˜20,000 cells/well in 0.1% FBS-EBM-2). Incubation continued at 37° C. in 5% CO2 for 20-24 hours. The next day peptide-based constructs were prepared for testing in a 96 well plate. The supernatant was aspirated from the cell-well, replaced with EBM-2 or the testing reagent at 20 μL/well. Then, 180 μL/well of 1.12% FBS-GFS were added to make a final concentration of 1% FBS-GFS in EBM-2. This aspiration and addition was done well-by-well. ^3H-thymidine (100 μCi/mL) was added at 10 μL/well (1 μCi/well, final). Incubation continued at 37° C., 5% CO2 for 72 hours. To harvest the plate, the supernatant was aspirated off from the cell-well and then 75 μL-100 μL/well of 0.025% trypsin-EDTA was added. After incubation for 8-10 minutes at room temperature in the hood, the cells were checked and 100 μL/well of 2-5% FBS-PBS was added to stop the reaction. The plate was then harvested, dried and counted using an Inotech cell harvester (Inotech Biosystems, INB-384, Sample Processing and Filter Counting System, Lansing, Mich.).

[5] = system: retinal endothelial cells; test: Retinal endothelial cell growth stimulated by VEGF (DNA content); assay type: cell-based, bovine; conditions: 5 μg/mL and 15 μg/mL
Protocol: In these experiments, peptide-based constructs are tested for their activity on the action of VEGF, bFGF, IGF-1 and conditioned media (hypoxia and hyperglycemia) on the in vitro growth and migration of retinal pigmented epithelial cells (RPE), retinal microvessel pericytes, and retinal endothelial cells. Effects are evaluated on gene expression under hypoxic or […] conditions. In additional experiments, the effects of such constructs are characterized in vivo on the neovascular responses to hyperoxia in the retina of the neonatal mouse.
For the in vitro culture experiments, retinal microvessel pericytes, retinal endothelial cells, and retinal pigmented epithelial cells (RPE) are cultured from bovine retina. Dose responses and time course for growth and migration as stimulated by VEGF, bFGF, and IGF-1 are performed. For example, retinal endothelial cell growth as stimulated by VEGF was inhibited with 5 μg/mL and 15 μg/mL XMP.679 as measured by DNA content (ng/cell well). […] When the dose responses of these growth factors and conditioned media are determined, the effect of peptide-based constructs independently, and in combination with the growth factors described above, are tested in growth and migration assays.

[6] = Behaviour in 1 mg/ml stock solution; assay type: physicochemical; design: key: b: precipitated in 1 mg/ml stock solution; conditions: no IC50 given

For `CC(C)C[C@@H](NC(=O)[C@H](N)CCCCN)C(=O)N[C@H](Cc1ccccc1)C(=O)N[C@H](CCCNC(=N)N)C(=O)N[C@H](Cc1cccc2ccccc12)C(=O)N[C@H](CCC(N)=O)C(=O)N[C@H](C)C(=O)N[C@H](CCCCN)C(=O)N[C@H](Cc1cccc2ccccc12)C(N)=O` [XMP.629, k-l-f-r-(naph-a)-q-a-k-(naph-a)] (H-[dK][dL][dF][dR][d1Nal][dQ][dA][dK][d1Nal]-NH2; N-terminus assumed), the antimicrobial activity [1] was “highest antimicrobial activities”, the “% Inhibition” value [2] was 30.8% and the LPS neutralization activity (LPS) was “showed activity”. For the same compound, the “Assay A: percent heparin neutralization relative to protamine (100%)” value [3] was 69% and the “Assay B: percent heparin neutralization relative to protamine (100%)” value [3] was 49%.

With `CC(C)C[C@@H](NC(=O)[C@H](N)CCCCN)C(=O)N[C@H](Cc1ccccc1)C(=O)N[C@H](CCCCN)C(=O)N[C@H](Cc1cccc2ccccc12)C(=O)N[C@H](CCC(N)=O)C(=O)N[C@H](C)C(=O)N[C@H](CCCCN)C(=O)N[C@H](Cc1cccc2ccccc12)C(=O)N[C@H](CCCCN)C(=O)NCC(N)=O` [XMP.679, k-l-f-k-(naph-a)-q-a-k-(naph-a)-k-g] (H-[dK][dL][dF][dK][d1Nal][dQ][dA][dK][d1Nal][dK]G-NH2; N-terminus assumed) the antimicrobial activity [1] was “highest antimicrobial activities”, the “IC50” value ([4]; 72 h) was 6.3 ± 0.9 µg/mL (≈ 4.37 µM) and the “cell growth by DNA content in treated VEGF-stimulated cells versus unstimulated cells” value [5] was “comparable with that of cells not stimulated by VEGF”. For the same compound, the “retinal endothelial cell growth as stimulated by VEGF, measured by DNA content (ng/cell well)” value [5] was “inhibited”, the “Assay A: percent heparin neutralization relative to protamine (100%)” value [3] was 96% and the “Assay B: percent heparin neutralization relative to protamine (100%)” value [3] was 94%.

For “2-naphthylacetyl-k-l-f-r-(naph-a)-q-a-k ({Acetyl(2-naphthyl)}-[dK][dL][dF][dR][dNal][dQ][dA][dK]; not fully specified; printed as 2-naphthylacetyl-k-l-f-r-(naph-a)-q-a-k) [XMP.666]”, the “precipitated in 1 mg/ml stock solution” value [6] was “b”, the “Assay A: percent heparin neutralization relative to protamine (100%)” value [3] was 39% and the “Assay B: percent heparin neutralization relative to protamine (100%)” value [3] was 18%.

In the case of `CC[C@@H](C)[C@@H](NC(=O)[C@@H](CO)NC(=O)CNC(=O)[C@@H](CCCCN)NC(=O)[C@@H](Cc1cccc2ccccc12)NC(=O)[C@@H](CCCCN)NC(=O)[C@@H](C)NC(=O)[C@@H](CCC(N)=O)NC(=O)[C@@H](Cc1cccc2ccccc12)NC(=O)[C@@H](CCCNC(=N)N)NC(=O)[C@@H](Cc1ccccc1)NC(=O)[C@@H](CC(C)C)NC(=O)[C@H](N)CCCCN)C(=O)N[C@H](CCCCN)C(N)=O` [XMP.624, k-l-f-r-(naph-a)-q-a-k-(naph-a)-k-g-s-i-k] (H-[dK][dL][dF][dR][d1Nal][dQ][dA][dK][d1Nal][dK]G[dS][dI][dK]-NH2), the “IC50 values, additional assays” value ([4]; HUVEC proliferation, purified constructs, said to be comparable to Table II (μg/mL)) is reported as 4.9 ±0.5, the “% Inhibition” value [2] is reported as 51.9% and the LPS neutralization activity (LPS) is reported as “showed activity”. For the same compound, the “Assay A: percent heparin neutralization relative to protamine (100%)” value [3] was 131% and the “Assay B: percent heparin neutralization relative to protamine (100%)” value [3] was 94%.
